The values below come from patent US20070026478A1, “Hemiasterlin affinity probes and their uses” (WYETH, priority 2002, published 2007).

In general, inhibition refers to the percentage by which the read-out fell short of the control. A low value points to little suppression. Usually IC50 stands for the point on the concentration scale where inhibition reaches its midpoint.

Where “and” joins values, the source holds several entries; their conditions need not be identical. Equal values may be shown once. Read-outs that look alike come from different tables or passages of the source. Marks after values point to notes of the source that are not given here.

Experiment [1] concerns the target T1, bovine brain tubulin (Bos taurus, UniProt P81947+Q6B856).
T1 construct: MAP-rich bovine brain tubulin (99% purity), Hela cell tubulin (90% purity); purchased Cytoskeleton (Denver, Colo.); host or cells: bovine brain
Description: Reversible binding affinity assay (tubulin fluorescence). Here is the method:
The affinity of both HTI-286 and of non-radiolabled Probe 1 and Probe 2, to bovine brain tubulin was determined by previously published methods (Krishnamurthy et al., Biochem., submitted). Briefly, 5 mg/mL […] tubulin prepared in PEM buffer was pre-incubated with buffer or varying concentrations of test agents in individual quartz cuvettes. The intrinsic tryptophan fluorescence of tubulin (excitation at 560 nm and maximal emission at 580 nm) was measured after pre-incubation for 90 minutes. The change in fluorescence intensity at 580 nm in the presence of compound was fitted to a quadratic equation to obtain apparent dissociation constants (KD) of the test agents.

For a further experiment, the target named is T2, bovine MAP-rich tubulin (Bos taurus, UniProt P81947+Q6B856).
T2 construct: MAP-rich bovine brain tubulin (99% purity), Hela cell tubulin (90% purity); purchased Cytoskeleton (Denver, Colo.); host or cells: bovine brain
Description: Tubulin polymerization assay in a cell-free system. In kind it is biochemical. The conditions noted are these: 0.3 μM compound. Here is the method:
In vitro tubulin polymerization assays were performed according to procedures that have been described elsewhere (Loganzo et al., Cancer Res. 2003, 63:1838-1845). Briefly, bovine MAP-rich tubulin (final concentration 1.5 mg/mL) was dissolved in cold PEM buffer containing 1 mM GTP (GPEM) and centrifuged at 12,000×g for 10 minutes at 4° C. The tubulin solution (100 μL/well) was added rapidly to wells of a low-volume, 96-well plate already containing duplicate aliquots (10 μL) of test compounds in GPEM. Final compound concentrations were 0.3 μM. Control wells contained the same final concentration of DMSO (0.3%). After initiation of the reaction, absorbance at 340 nm was measured every minute for 60 minutes at 24° C. using a SpectraMax Plus plate reader (Molecular Devices, Sunnyvale, Calif.). An increase in absorbance over time indicated an increase in turbidity resulting from tubulin polymerization.

The test system of a further experiment is KB cells. Description: Cell proliferation assay in tissue culture (SRB). In kind it is cell-based. The method, then: Cell proliferation studies were performed according to procedures described by Loganzo et al. (Cancer Res. 2003, 63:1838-1845). Briefly, KB cells were plated in 96-well plates in 100 μL media at densities pre-determined to produce 60-90% confluence at the time of analysis. Compounds, which were serially diluted into media as 2× stocks, were added to cells in duplicate. After 72 hours of incubation, cell survival was assayed by the SRB assay as described (Rabindran et al., C. Cancer Res. 1998, 58:5850-5858). IC50 values (i.e. the concentration of drug needed to inhibit cell growth by 50%) were used to evaluate drug potency.

For experiment [2], the target named is T3, tubulin (Bos taurus, UniProt P81947+Q6B856).
T3 construct: MAP-rich bovine brain tubulin (99% purity), Hela cell tubulin (90% purity); purchased Cytoskeleton (Denver, Colo.); host or cells: bovine brain
Description: Competition of [3H]-Probe 2 photolabeling of tubulin. The class given is binding, bovine. Here is the method: (§1) Alternatively, a cytosolic preparation of KB-3-1 cell lysates (50 μg) or KB-3-1 cells (40,000 cells) were used in the place of purified tubulin above. The supernatant of mechanically disrupted cells centrifuged at 100,000×g was used as a cytosolic preparation. K-3-1 cells were prepared by growing KB-3-1 cells in a 96-well plate and rinsing them with serum free medium.
Competition binding experiments were performed as described in Section 7.1.5. […] Samples were then irradiated for 2 hours at 4° C. and evaluated by SDS-PAGE and fluorography.

Experiment [3] addresses T1, bovine brain tubulin. Description: Competition of [3H]-Probe 1 photolabeling of tubulin. The class given is binding. The conditions noted are these: for Probe 1 photolabeling of tubulin (% of no-competitor control): control (no competitor) = 100; for IC50: read-out: IC50 for inhibition of Probe 1 photolabeling of tubulin. Here is the method: as §1
If whole cells were used, Laemmli sample buffer was then added to lyse the cells.
Low grade SDS (Sigma, catalog No. L5750) was used in the running buffer, when needed, to allow separation of α and β-tubulin subunits. Gels were fixed, stained with Coomassie blue from BioRad (Hercules, Calif.) to ensure equal loading of protein, and sliced. […] Alternatively, gels were incubated with EN^3HANCE according to the manufacturer's instructions (Life Sciences Products, Inc.), washed, and dried prior to exposure of the gel to Biomax MX film from Kodak (Rochester, N.Y.) for fluorography.
After incubation for 30 minutes at 37° C., samples were irradiated with 360 nm UV light for 30 minutes and separated by SDS-PAGE. Gels were exposed to film using fluorographic techniques.
In particular, photolabeling experiments were performed as described in section 7.1.5 above, at both room temperature and at 37° C.

For the next experiment, the target named is T4, α-tubulin (Bos taurus, UniProt P81947+Q6B856).
T4 construct: MAP-rich bovine brain tubulin (99% purity), Hela cell tubulin (90% purity); purchased Cytoskeleton (Denver, Colo.); host or cells: bovine brain
Description: Subtilisin digestion of tubulin after incubation with various compounds. In kind it is biochemical, bovine. The settings on record: 50 μM drug, subtilisin up to 60 min at room temperature. Here is the method:
Tubulin (5 μg) was incubated with 50 μM drug at room temperature for 25 minutes and then digested under native conditions with subtilisin (0.05 μg) for 0, 5, 10, 15, 30 and 60 min at room temperature. Enzymatic digestion was stopped with 1 mM PMSF and samples were resolved by SDS-PAGE under conditions that allowed separation of α- and β-tubulin subunits. Gels were then fixed and stained with Coomassie blue.

Experiment [4] deals with T3, tubulin. Description: Separation of polymerized and free tubulin by centrifugation. In kind it is biochemical, bovine. The settings on record: 50 μM drug, centrifugation at 10,000 g and 100,000 g. Here is the method:
Tubulin (5 μg) was incubated with 50 μM drug at room temperature for 25 minutes and then centrifuged at either 10,000 g for 15 minutes in a tabletop microfuge or at 100,000 g for 15 minutes in an airfuge. The supernatant was carefully removed to a fresh tube to obtain free tubulin and the pellet was solubilized in SDS-PAGE sample buffer.

Experiment [5] addresses microtubule associated protein (MAP)-rich bovine brain tubulin (bovine) (UniProt P81947).
Experiment [6] has the same target. Description: reversible binding to bovine brain tubulin (range given in Table 1).
Experiment [7] shares this target. Description: 100 µM non-radiolabeled Probe 1 against [3H]-Probe 1, tubulin: radiolabeled probe 2.5:2.5.
Experiment [8] shares this target. Description: 100 µM non-radiolabeled Probe 1 against [3H]-Probe 1, tubulin: radiolabeled probe 2.5:0.25.
For experiment [9] the target is unchanged. Description: 100 µM non-radiolabeled Probe 1 against 0.25 µM [3H]-Probe 1 photolabeling of tubulin, 37° C.
For experiment [10] the target is unchanged. Description: 100 µM non-radiolabeled Probe 1 against 0.25 µM [3H]-Probe 1 photolabeling of tubulin, room temperature.
The target is the same in experiment [11]. Description: change of fluorescence of rhodamine-labeled tubulin.
Experiment [12] has the same target. Description: 100 µM non-radioactive Probe 2 against 0.25 µM [3H]-Probe 2 photolabeling of tubulin, room temperature.
[13] abbreviates: 100 μM competitor, 2.5 μM tubulin, 0.25 μM [3H]-Probe 2, room temperature.
The mark [14] stands for this setting: Room Temp., 2.5 μM tubulin, 0.25 μM radiolabeled Probe 1, 100 μM competitor.
Where [15] appears, read: room temperature, 400-fold molar excess (100 μM) competitor, 2.5 μM tubulin, 0.25 μM radiolabeled Probe 1.
The mark [16] stands for this setting: room temperature, 2.5 μM tubulin, 0.25 μM radiolabeled Probe 1.

With `CN[C@H](C(=O)N[C@H](C(=O)N(C)[C@H](/C=C(\C)C(=O)O)C(C)C)C(C)(C)c1ccc(C(=O)c2ccccc2)cc1)C(C)(C)c1ccccc1` [Probe 2, N,β,β-trimethyl-L-phenylalanyl-4-benzoyl-N-[(1S,2E)-3-carboxy-1-isopropyl-2-butenyl]-N,β,β-trimethyl-L-phenylalaninamide], the Kd is 1100 to 6000 nM at bovine brain tubulin [1] (Table 1, binding to bovine brain tubulin, read-out: KD) and 3600 nM on bovine brain tubulin [1] (rhodamine-labeled tubulin, 90 minutes pre-incubation, read-out: apparent binding constant (KD), fluorescence method). Further, the “KD relative to KD of HTI-286” value on bovine brain tubulin [1] (fluorescence method) is reported as “approximately 6 fold”. In addition, the inhibition at 0.3 µM on bovine MAP-rich tubulin was determined as 69%. For the same compound, the IC50 stood at 22.4 ± 0.7 nM in the experiment on KB cells (72 hours) and 22 nM with KB cells (Homo sapiens, KB, 72 h). Besides, at tubulin [2] (setting [13]), the “inhibition of Probe 2 labeling of tubulin” value is 12%.

With `CC(=O)O[C@H]1C(=O)[C@@]2(C)[C@H]([C@H](OC(=O)c3ccccc3)[C@]3(O)C[C@H](OC(=O)[C@H](O)[C@@H](NC(=O)c4ccccc4)c4ccccc4)C(C)=C1C3(C)C)[C@]1(OC(C)=O)CO[C@@H]1C[C@@H]2O` [Paclitaxel], the “enhancement of Probe 1 photolabeling of tubulin” value on bovine brain tubulin [3] (37° C.) worked out at 73%. In addition, the “Probe 1 photolabeling of tubulin (% of no-competitor control)” value on bovine brain tubulin [3] (37° C., 100 μM competitor) is recorded as 173 ± 7%; on bovine brain tubulin [3] (setting [14]), 83 ± 41%. Also, the “reduction of Probe 1 photolabeling of tubulin” value (shortened to “reduction”) at bovine brain tubulin [3] (setting [15]) is reported as “almost no effect”. For the same compound, on tubulin [2] (setting [13]), the “Probe 2 photolabeling, % of the control value” is reported as 113%. Also, the “enhancement of Probe 2 photolabeling” value at tubulin [2] (higher concentrations of competitor) was “this effect was lost”. In addition, at α-tubulin, the “protection of α-tubulin from subtilisin cleavage” value (shortened to “protection of α-tubulin”) is listed as “unable to cleave α-tubulin even after 60 minutes”. Further, the “protein recovered in pellet fractions (tubulin aggregation)” value (shortened to “protein recovered in pellet fractions”) at tubulin [4] is reported as “significant amount of protein was recovered”.

For the compound `CC[C@H](C)[C@@H]([C@@H](CC(=O)N1CCC[C@H]1[C@H](OC)[C@@H](C)C(=O)N[C@@H](Cc1ccccc1)c1nccs1)OC)N(C)C(=O)[C@@H](NC(=O)[C@H](C(C)C)N(C)C)C(C)C` [Dolastatin-10], the entries for the “reduction” value on bovine brain tubulin [3] (37° C.) and on bovine brain tubulin [3] (setting [15]) were “about 75%” and “approximately 87%”, respectively. Further, the “Probe 1 photolabeling of tubulin (% of no-competitor control)” value at bovine brain tubulin [3] (37° C., 100 μM competitor) was 26^† %; at bovine brain tubulin [3] (setting [14]), 13 ± 3%. Moreover, the IC50 at bovine brain tubulin [3] (setting [16]) came to 5000 nM. Also, the “inhibition of Probe 2 labeling of tubulin” value at tubulin [2] (setting [13]) is 27%. Further, the “protection of α-tubulin” value at α-tubulin is given as “unable to cleave α-tubulin even after 60 minutes”. The “protein recovered in pellet fractions” value on tubulin [4] was “significant amount of protein was recovered”.

For the compound `Nc1nc2c(ncn2[C@@H]2O[C@H](COP(=O)(O)OP(=O)(O)OP(=O)(O)O)[C@@H](O)[C@H]2O)c(=O)[nH]1` [GTP, guanosine-5′-triphosphate], the “effect on incorporation of Probe 1 into tubulin” value on bovine brain tubulin [3] (pre-incubation with between 0 and 100 μM) is on record as “did not significantly inhibit incorporation”.

In turn, “Probe 1 (4-benzoyl-N,β,β-trimethyl-L-phenylalanyl-N1-[(1S,2E)-3-carboxy-1-isopropylbut-2-enyl]-N1,3-dimethyl-L-valinamide) (peptide)” had a tubulin polymerization (% inhibition) in [5] of 88%. This compound displayed a Kd in experiment [6] of 800 nM. Further, the percent inhibition of tubulin labeling is 82% in experiment [7] and 93% in experiment [8]. Moreover, the Inhibition (%) (labeling against control = 100) was 24% in [9] and 12% in experiment [10].

Consider `CC[C@]1(O)C[C@@H]2CN(CCc3c([nH]c4ccccc34)[C@@](C(=O)OC)(c3cc4c(cc3OC)N(C)[C@H]3[C@@](O)(C(=O)OC)[C@H](OC(C)=O)[C@]5(CC)C=CCN6CC[C@]43[C@@H]65)C2)C1` [Vinblastine], for which the “reduction” value was “about 50%” at bovine brain tubulin [3] (37° C.) and “approximately 72%” at bovine brain tubulin [3] (setting [15]). Moreover, the “Probe 1 photolabeling of tubulin (% of no-competitor control)” value was 52 ± 0.5% at bovine brain tubulin [3] (37° C., 100 μM competitor) and 28 ± 1% at bovine brain tubulin [3] (setting [14]). The IC50 on bovine brain tubulin [3] (setting [16]) amounted to 22000 nM. Further, at tubulin [2] (setting [13]), the “inhibition of Probe 2 labeling of tubulin” value was 64%. Besides, on α-tubulin, the “protection of α-tubulin” value is “unable to cleave α-tubulin even after 60 minutes”. Moreover, on tubulin [4], the “protein recovered in pellet fractions” value was “significant amount of protein was recovered”.

“Probe 2 (N,β,β-trimethyl-L-phenylalanyl-4-benzoyl-N-[(1S,2E)-3-carboxy-1-isopropyl-2-butenyl]-N,β,β-trimethyl-L-phenylalaninamide) (peptide)” displayed a tubulin polymerization (% inhibition) in [5] of 69%. The fold KD against HTI-286 in experiment [11] was found to be 6 fold. For the same compound, the Kd in experiment [6] is 1100 nM and 6000 nM. Further, in experiment [12], the percent inhibition of Probe 2 labeling (so in the source) came out at 12%.
